Molecules are shown by their SMILES. pEC50: −log10 of the molar value.

The test addresses T1, STAT6 (Homo sapiens, UniProt P42226).
T1 construct: stably transfected HaCaT keratinocyte cell line, which expresses NanoLuc luciferase reporter gene under the transcriptional control of the STAT6 responsive promoter; endogenous in cells; host or cells: HaCaT keratinocyte reporter cell line (stably transfected with a NanoLuc reporter)
T1 sequence (P42226 1-847): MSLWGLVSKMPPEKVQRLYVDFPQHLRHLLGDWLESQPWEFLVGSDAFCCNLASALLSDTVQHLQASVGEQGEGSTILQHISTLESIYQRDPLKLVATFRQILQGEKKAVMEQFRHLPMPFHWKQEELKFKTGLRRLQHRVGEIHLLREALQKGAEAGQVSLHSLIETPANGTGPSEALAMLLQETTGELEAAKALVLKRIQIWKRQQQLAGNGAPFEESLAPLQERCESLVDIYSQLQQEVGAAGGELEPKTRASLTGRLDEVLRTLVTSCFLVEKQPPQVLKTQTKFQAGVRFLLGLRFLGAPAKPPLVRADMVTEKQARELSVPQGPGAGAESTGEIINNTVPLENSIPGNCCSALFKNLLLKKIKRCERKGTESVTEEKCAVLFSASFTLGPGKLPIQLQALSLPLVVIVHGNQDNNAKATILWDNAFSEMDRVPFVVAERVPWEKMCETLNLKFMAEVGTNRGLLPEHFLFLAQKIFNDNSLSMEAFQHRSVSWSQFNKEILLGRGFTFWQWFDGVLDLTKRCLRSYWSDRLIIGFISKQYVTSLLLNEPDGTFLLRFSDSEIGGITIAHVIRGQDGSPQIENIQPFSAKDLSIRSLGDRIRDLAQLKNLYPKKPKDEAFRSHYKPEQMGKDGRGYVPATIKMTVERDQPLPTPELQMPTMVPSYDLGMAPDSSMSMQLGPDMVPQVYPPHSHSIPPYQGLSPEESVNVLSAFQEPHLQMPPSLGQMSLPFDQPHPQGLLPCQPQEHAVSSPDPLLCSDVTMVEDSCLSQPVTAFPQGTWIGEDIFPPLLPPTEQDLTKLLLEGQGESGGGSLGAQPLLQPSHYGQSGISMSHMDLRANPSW
Nature of the test: STAT6 Reporter Luciferase Assay (IL-13 stimulated HaCaT keratinocyte NanoLuc reporter cells). The class given is cell-based. The conditions noted are these: IL-13 stimulated HaCaT STAT6 NanoLuc reporter cells; read-out: Reporter EC50. The procedure, abridged:
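Luminescence from a NanoLuc reporter driven by the STAT6-responsive IL-13Ra2 promoter in HaCaT keratinocytes serves as the read-out. Compounds are given 2 h before a 4 h stimulation with 0.12 nM IL-13.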
As for `CC(C)n1nc(C(=O)NCc2ccc(NC(=O)N(C)C)cc2)c2c1CCN(c1ccc(C(=O)N3CC4(CCO4)C3)cn1)C2` [Example 326, 5-(5-(1-oxa-6-azaspiro[3.3]heptane-6-carbonyl)pyridin-2-yl)-N-(4-(3,3-dimethylureido)benzyl)-1-isopropyl-4,5,6,7-tetrahydro-1H-pyrazolo[4,3-c]pyridine-3-carboxamide], the negative-log EC50 (pEC50) is 5.89.

On to `CC(C)n1nc(C(=O)NCc2ccc(NC(=O)N(C)C)cc2)c2c1CCN(c1ccc(C(=O)N3CC4(CNC(=O)C4)C3)cn1)C2` [Example 327, N-(4-(3,3-dimethylureido)benzyl)-1-isopropyl-5-(5-(7-oxo-2,6-diazaspiro[3.4]octane-2-carbonyl)pyridin-2-yl)-4,5,6,7-tetrahydro-1H-pyrazolo[4,3-c]pyridine-3-carboxamide], for which the pEC50 was 5.49.

With `CC(C)n1nc(C(=O)NCc2ccc(NC(=O)N(C)C)cc2)c2c1CCN(c1ccc(C(=O)N3CC(=O)NCC3(C)C)cn1)C2` [Example 328, 5-(5-(2,2-dimethyl-5-oxopiperazine-1-carbonyl)pyridin-2-yl)-N-(4-(3,3-dimethylureido)benzyl)-1-isopropyl-4,5,6,7-tetrahydro-1H-pyrazolo[4,3-c]pyridine-3-carboxamide], the pEC50 was 6.58.

For the compound `CC(C)n1nc(C(=O)NCc2ccc(NC(=O)N(C)C)cc2)c2c1CCN(c1ccc(C(=O)N3CCC4(CCC(=O)N4)CC3)cn1)C2` [Example 329, N-(4-(3,3-dimethylureido)benzyl)-1-isopropyl-5-(5-(2-oxo-1,8-diazaspiro[4.5]decane-8-carbonyl)pyridin-2-yl)-4,5,6,7-tetrahydro-1H-pyrazolo[4,3-c]pyridine-3-carboxamide], the pEC50 was 5.98.

As to `CC(=O)NC1(C)CN(C(=O)c2ccc(N3CCc4c(c(C(=O)NCc5ccc(NC(=O)N(C)C)cc5)nn4C(C)C)C3)nc2)C1` [Example 330, 5-(5-(3-acetamido-3-methylazetidine-1-carbonyl)pyridin-2-yl)-N-(4-(3,3-dimethylureido)benzyl)-1-isopropyl-4,5,6,7-tetrahydro-1H-pyrazolo[4,3-c]pyridine-3-carboxamide], the pEC50 is 5.70.

Regarding `CC(C)n1nc(C(=O)NCc2ccc(NC(=O)N(C)C)cc2)c2c1CCN(c1ccc(C(=O)N(C)CCO)cn1)C2` [Example 332, N-(4-(3,3-dimethylureido)benzyl)-5-(5-((2-hydroxyethyl)(methyl)carbamoyl)pyridin-2-yl)-1-isopropyl-4,5,6,7-tetrahydro-1H-pyrazolo[4,3-c]pyridine-3-carboxamide], the negative-log EC50 (pEC50) is 6.80.

Turning to `CC(C)n1nc(C(=O)NCc2ccc(NC(=O)N(C)C)cc2)c2c1CCN(c1ccc(C(=O)N3Cc4cnn(C)c4C3)cn1)C2` [Example 363, N-(4-(3,3-dimethylureido)benzyl)-1-isopropyl-5-(5-(1-methyl-1,4,5,6-tetrahydropyrrolo[3,4-c]pyrazole-5-carbonyl)pyridin-2-yl)-4,5,6,7-tetrahydro-1H-pyrazolo[4,3-c]pyridine-3-carboxamide], the negative logarithm of the EC50 (pEC50) is 8.15.

On to `CC(C)n1nc(C(=O)NCc2ccc(NC(=O)N(C)C)cc2)c2c1CCN(c1ccc(C(=O)N3CCc4nn(C)cc4C3)cn1)C2` [Example 364, N-(4-(3,3-dimethylureido)benzyl)-1-isopropyl-5-(5-(2-methyl-4,5,6,7-tetrahydro-2H-pyrazolo[4,3-c]pyridine-5-carbonyl)pyridin-2-yl)-4,5,6,7-tetrahydro-1H-pyrazolo[4,3-c]pyridine-3-carboxamide], for which the pEC50 is 7.70.

Regarding `Cc1nc2c(s1)CN(C(=O)c1ccc(N3CCc4c(c(C(=O)NCc5ccc(NC(=O)N(C)C)cc5)nn4C(C)C)C3)nc1)CC2` [Example 365, N-(4-(3,3-dimethylureido)benzyl)-1-isopropyl-5-(5-(2-methyl-4,5,6,7-tetrahydrothiazolo[5,4-c]pyridine-5-carbonyl)pyridin-2-yl)-4,5,6,7-tetrahydro-1H-pyrazolo[4,3-c]pyridine-3-carboxamide], the pEC50 is 8.22.

Regarding `CC(C)n1nc(C(=O)NCc2ccc(NC(=O)N(C)C)cc2)c2c1CCN(c1ccc(C(=O)N3CCc4nccnc4C3)cn1)C2` [Example 366, N-(4-(3,3-dimethylureido)benzyl)-1-isopropyl-5-(5-(5,6,7,8-tetrahydropyrido[3,4-b]pyrazine-6-carbonyl)pyridin-2-yl)-4,5,6,7-tetrahydro-1H-pyrazolo[4,3-c]pyridine-3-carboxamide], the negative-log EC50 (pEC50) was 7.54.

Turning to `CC(C)n1nc(C(=O)NCc2ccc(NC(=O)N(C)C)cc2)c2c1CCN(c1ccc(C(=O)N3CCn4ncnc4C3)cn1)C2` [Example 367, N-(4-(3,3-dimethylureido)benzyl)-1-isopropyl-5-(5-(5,6,7,8-tetrahydro-[1,2,4]triazolo[1,5-a]pyrazine-7-carbonyl)pyridin-2-yl)-4,5,6,7-tetrahydro-1H-pyrazolo[4,3-c]pyridine-3-carboxamide], the pEC50 was 7.14.

In the case of `Cc1cc(C)c2c(n1)CN(C(=O)c1ccc(N3CCc4c(c(C(=O)NCc5ccc(NC(=O)N(C)C)cc5)nn4C(C)C)C3)nc1)C2` [Example 368, 5-(5-(2,4-dimethyl-6,7-dihydro-5H-pyrrolo[3,4-b]pyridine-6-carbonyl)pyridin-2-yl)-N-(4-(3,3-dimethylureido)benzyl)-1-isopropyl-4,5,6,7-tetrahydro-1H-pyrazolo[4,3-c]pyridine-3-carboxamide], the pEC50 is 8.30.

For the compound `Cc1nn(C)c2c1CN(C(=O)c1ccc(N3CCc4c(c(C(=O)NCc5ccc(NC(=O)N(C)C)cc5)nn4C(C)C)C3)nc1)CC2` [Example 369, 5-(5-(1,3-dimethyl-4,5,6,7-tetrahydro-1H-pyrazolo[4,3-c]pyridine-5-carbonyl)pyridin-2-yl)-N-(4-(3,3-dimethylureido)benzyl)-1-isopropyl-4,5,6,7-tetrahydro-1H-pyrazolo[4,3-c]pyridine-3-carboxamide], the pEC50 was 7.42.

Consider `CC(C)n1nc(C(=O)NCc2ccc(NC(=O)N(C)C)cc2)c2c1CCN(c1ccc(C(=O)N3Cc4cnc(C5CC5)nc4C3)cn1)C2` [Example 370, 5-(5-(2-cyclopropyl-6,7-dihydro-5H-pyrrolo[3,4-d]pyrimidine-6-carbonyl)pyridin-2-yl)-N-(4-(3,3-dimethylureido)benzyl)-1-isopropyl-4,5,6,7-tetrahydro-1H-pyrazolo[4,3-c]pyridine-3-carboxamide], for which the pEC50 is 7.96.

Take `CC(C)n1nc(C(=O)NCc2ccc(NC(=O)N(C)C)cc2)c2c1CCN(c1ccc(C(=O)N3CCc4cnn(C)c4C3)cn1)C2` [Example 371, N-(4-(3,3-dimethylureido)benzyl)-1-isopropyl-5-(5-(1-methyl-4,5,6,7-tetrahydro-1H-pyrazolo[3,4-c]pyridine-6-carbonyl)pyridin-2-yl)-4,5,6,7-tetrahydro-1H-pyrazolo[4,3-c]pyridine-3-carboxamide]: the negative-log EC50 (pEC50) is 7.30.

With `CC(C)n1nc(C(=O)NCc2ccc(NC(=O)N(C)C)cc2)c2c1CCN(c1ccc(C(=O)N3CCn4ccnc4C3)cn1)C2` [Example 372, N-(4-(3,3-dimethylureido)benzyl)-1-isopropyl-5-(5-(5,6,7,8-tetrahydroimidazo[1,2-a]pyrazine-7-carbonyl)pyridin-2-yl)-4,5,6,7-tetrahydro-1H-pyrazolo[4,3-c]pyridine-3-carboxamide], the pEC50 was 7.23.

On to `Cc1nnc2n1CCN(C(=O)c1ccc(N3CCc4c(c(C(=O)NCc5ccc(NC(=O)N(C)C)cc5)nn4C(C)C)C3)nc1)C2` [Example 373, N-(4-(3,3-dimethylureido)benzyl)-1-isopropyl-5-(5-(3-methyl-5,6,7,8-tetrahydro-[1,2,4]triazolo[4,3-a]pyrazine-7-carbonyl)pyridin-2-yl)-4,5,6,7-tetrahydro-1H-pyrazolo[4,3-c]pyridine-3-carboxamide], for which the pEC50 was 6.27.

Turning to `CC(C)n1nc(C(=O)NCc2ccc(NC(=O)N(C)C)cc2)c2c1CCN(c1ccc(C(=O)N3CCc4ncsc4C3)cn1)C2` [Example 374, N-(4-(3,3-dimethylureido)benzyl)-1-isopropyl-5-(5-(4,5,6,7-tetrahydrothiazolo[5,4-c]pyridine-5-carbonyl)pyridin-2-yl)-4,5,6,7-tetrahydro-1H-pyrazolo[4,3-c]pyridine-3-carboxamide], the negative logarithm of the EC50 (pEC50) is 7.85.

With `CC(C)n1nc(C(=O)NCc2ccc(NC(=O)N(C)C)cc2)c2c1CCN(c1ccc(C(=O)N3CCc4ncccc4C3)cn1)C2` [Example 376, N-(4-(3,3-dimethylureido)benzyl)-1-isopropyl-5-(5-(5,6,7,8-tetrahydro-1,6-naphthyridine-6-carbonyl)pyridin-2-yl)-4,5,6,7-tetrahydro-1H-pyrazolo[4,3-c]pyridine-3-carboxamide], the negative-log EC50 (pEC50) was 8.00.

By pEC50 is commonly meant the EC50 on a negative log10 scale, so that one unit is a factor of ten.

The record behind these values is US20250320213A1, “Nitrogen-Containing Heterocyclic Compounds” (Pfizer Inc., priority 2024, published 2025).
